# Patent US20200024278A1, “COMPOSITION COMPRISING ANTIBIOTIC COMPOUND AND AN HETEROCYCLIC COMPOUND AND THEIR USE IN PREVENTING OR TREATING BACTERIAL INFECTIONS” (MUTABILIS, priority 2016, published 2020)
# Where two headings read alike, the source gives them in different places.
# How the values were obtained:
# KPN UFR68 = experiment: MIC, broth microdilution (CLSI), substance alone or ATB combined with compound at 4 or 8 μg/mL; assay type: cell-based, K. pneumoniae; details: Klebsiella pneumoniae, substance alone
# How it was run: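 Per CLSI-M7-A7, MICs are determined in cation-adjusted Mueller-Hinton broth with a final inoculum of 5·10^5 CFU/mL. Plates incubate 16-20 h at 35° C in air and are read by eye. Fosfomycin assays carry 25 μg/ml glucose-6-phosphate.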
# PAE 27853 = assay type: cell-based, P. aeruginosa; details: tntbc: Too numerous to be counted
# Experimental: (§1) Method 4: Determination of the Spontaneous Mutation Frequency of the Compounds Alone and Combined with Antibiotics.
# (§2) Bacterial isolates (Table 3) were grown overnight at 35° C. on TSA plates (Becton-Dickinson and Company) in ambient air. After 24 h of incubation, isolated bacterial colonies were added to cation-adjusted Mueller-Hinton broth (ca-MHB; Becton-Dickinson and Company) and cultured for approximately 6 h at 35° C. The pre-culture was stopped once bacteria have reached an OD600 nm of 0.5 for 200 μL. The bacterial suspension was centrifuged at 4000 rpm for 20 min. The supernatant was then discarded and the bacterial pellet was dissolved in ca-MHB to obtain 10^9 to 10^10 CFU/mL. Assays including Fosfomycin were supplemented with 25 μg/ml of Glucose-6-phosphate. 100 μL of the adjusted bacterial suspension were spread on agar plates containing different concentrations of the compounds of the present invention alone or combined with an antibacterial (Table 1). The plates were incubated for 24-48 h at 35° C. in ambient air. CFU were numerated on each agar plate containing compound. The number of resistant colonies obtained was divided by the starting inoculum to give the frequency of spontaneous resistance for a given incubation time (24 and 48 h).
# PAE UFR48 = assay type: cell-based, P. aeruginosa; details: tntbc: Too numerous to be counted
# Experimental: as §1, §2
# PAE UFR90 = assay type: cell-based, P. aeruginosa; details: tntbc: Too numerous to be counted
# Experimental: as §1, §2
SMILES,MIC (KPN UFR68) [µg/mL],Frequency of spontaneous resistance (PAE 27853; single agent at 4.MIC),Frequency of spontaneous resistance (PAE 27853; single agent at 8.MIC),Frequency of spontaneous resistance (PAE UFR48; single agent at 4.MIC),Frequency of spontaneous resistance (PAE UFR48; single agent at 8.MIC),Frequency of spontaneous resistance (PAE UFR90; single agent at 4.MIC),Frequency of spontaneous resistance (PAE UFR90; single agent at 8.MIC)
"CO/N=C(\C(=O)N[C@@H]1C(=O)N2C(C(=O)[O-])=C(C[N+]3(C)CCCC3)CS[C@H]12)c1csc(N)n1 [FEP, Cefepime]",> 256,–,–,–,–,–,–
"NCC[C@H](O)C(=O)N[C@@H]1C[C@H](N)[C@@H](O[C@H]2O[C@H](CN)[C@@H](O)[C@H](O)[C@H]2O)[C@H](O)[C@H]1O[C@H]1O[C@H](CO)[C@@H](O)[C@H](N)[C@H]1O [AN, Amikacin, reference compound]",–,6.6E−07,1.7E−07,–,–,–,–
"NC[C@H]1C=C(c2cnco2)[C@@H]2CN1C(=O)N2OS(=O)(=O)[O-].O=C(O)C(F)(F)F.[Na+] (relative stereo) [Example 1, sodium and 2,2,2-trifluoroacetate [trans-2-(azaniumylmethyl)-4-oxazol-5-yl-7-oxo-1,6-diazabicyclo[3.2.1]oct-3-en-6-yl] sulfate]",–,tntbc,tntbc,tntbc,tntbc,tntbc,tntbc
